In patent US20110152267A1, “Compositions and Methods for Treating Hyperproliferative Disorders” (Texas Tech University System, priority 2009, published 2011):

Tests used:
Assay type in all cases: cell-based, human
[1] = test system: SJ-G2 Glioblastoma cell line; experiment: DIMSCAN cytotoxicity, fenretinide + L-threo-sphinganines 3:1 (Example B8); details: 96 h
Procedure: (§1) Cytotoxicity Assay—Once again, cytotoxicity is determined using the DIMSCAN assay system (R. Proffitt et al., Cytometry 24, 204-213 (1996); T. Frgala et al., Mol Cancer Ther. 6:886-97, 2007). The system employs digital imaging microscopy to quantify viable cells, which selectively accumulate fluorescein diacetate to become brightly fluorescent. The system is capable of measuring cytotoxicity over a 4-5 log dynamic range by quenching the residual fluorescence of dead and dying cells with eosin Y and quantifying the total fluorescence of viable cells using digital thresholding. Measured fluorescence is directly proportionate to the number of viable cells. A comparison of the total fluorescence of a drug-treated cell population to the fluorescence of a similar number of untreated cells yields a survival fraction. In brief, 2000 to 10,000 cells/well (depending on size and growth rates) are replicate plated into 60 wells of a 96-well tissue culture plate in 0.1 mL of whole medium and allowed to attach overnight. Drug(s) are then added in 0.05 mL of whole medium to the final concentrations indicated. Drugs (fenretinide, and various chain length L-threo-sphinganines) were tested both as single agents and in a 3:1 ratio of fenretinide:sphinganine. C18-L-threo-sphinganine, or “safingol,” was also tested and results shown for reference. There are 12 wells treated per drug concentration. Twelve wells receive drug vehicle-only to the appropriate final concentration and serve as controls for the plate. Cells are incubated for 96 hours at 37° C. in ambient air with 5% CO2. Fluorescein diacetate is then added to each well in 0.05 mL media to a final concentration of 8 microgram/mL. Cells are incubated for a further 15 minutes at 37° C. and 0.03 mL of 0.5% eosin Y is added to each well. Total fluorescence of viable cells is then measured by digital imaging microscopy. Results were graphed as the ratio of the fluoresecence of drug-treated wells to non-drug treated control wells (i.e., Survival Fraction). All tests were performed at least twice. Representative results are shown.
(§2) The Combination Index (CI) is a term to describe mathematical modeling of the pharmacologic effects on cytotoxicity (cell death) of two drugs in combination based. Cytotoxic “synergy” is defined as a cell death affect which is greater than would be expected from a simple product of the single agent cytotoxicities alone (i.e. an “additive” effect). By Chou-Talalay analysis, a CI<0.9 on a Fraction Affected (“Fa”, i.e. fraction of cells killed) indicates synergy, with smaller numbers indicating greater synergy; a CI of 0.9-1.1 signifies an additive or near-additive effect; and a CI>1.1 means the drug combination is antagonistic.
Fenretinide and L-threo-sphinganines tested in human Glioblastoma (brain cancer) cell line, SJ-G2.

[2] = test system: HT-29 colorectal adenocarcinoma cell line; experiment: DIMSCAN cytotoxicity, fenretinide + L-threo-sphinganines 3:1 (Example B10); details: 96 h
Procedure: as §1, §2
Fenretinide and L-threo-sphinganines tested in human colorectal adenocarcinoma (colon cancer) cell line, HT-29.

[3] = test system: U-266 Multiple Myeloma cell line; experiment: DIMSCAN cytotoxicity, fenretinide + L-threo-sphinganines 3:1 (Example B3); details: 96 h
Procedure: as §1, §2
Fenretinide and L-threo-sphinganines tested in human Multiple Myeloma (a cancer of the blood and bone marrow) cell line, U-266.

[4] = test system: PANC-1 pancreatic adenocarcinoma cell line; experiment: DIMSCAN cytotoxicity, fenretinide + L-threo-sphinganines 3:1 (Example B18)
Procedure: as §1, §2
Fenretinide and L-threo-sphinganines tested in human pancreatic adenocarcinoma (pancreas cancer) cell line, PANC-1.

[5] = test system: SJ-GBM2 Glioblastoma multiforme cell line; experiment: DIMSCAN cytotoxicity, fenretinide + L-threo-sphinganines 3:1 (Example B7); set-up: key to CI (Combination Index): Chou-Talalay CI: <0.9 synergy, 0.9-1.1 additive, >1.1 antagonism; details: 96 h
Procedure: as §1, §2
Fenretinide and L-threo-sphinganines tested in human Glioblastoma multiforme (brain cancer) cell line, SJ-GBM2.

[6] = test system: OVCAR-8 ovarian adenocarcinoma cell line; experiment: DIMSCAN cytotoxicity, fenretinide + L-threo-sphinganines 3:1 (Example B15); set-up: key to CI (Combination Index): Chou-Talalay CI: <0.9 synergy, 0.9-1.1 additive, >1.1 antagonism; details: 96 h
Procedure: as §1, §2
Fenretinide and L-threo-sphinganines tested in human ovarian adenocarcinoma (ovarian cancer) cell line, OVCAR-8.

[7] = test system: T98G Glioblastoma multiforme cell line; experiment: DIMSCAN cytotoxicity, fenretinide + L-threo-sphinganines 3:1 (Example B6); details: 96 h
Procedure: as §1, §2
Fenretinide and L-threo-sphinganines tested in human Glioblastoma multiforme (brain cancer) cell line, T98G.

[8] = test system: A-172 Glioblastoma multiforme cell line; experiment: DIMSCAN cytotoxicity, fenretinide + L-threo-sphinganines 3:1 (Example B4); set-up: key to CI (Combination Index): Chou-Talalay CI: <0.9 synergy, 0.9-1.1 additive, >1.1 antagonism; details: 96 h
Procedure: as §1, §2
Fenretinide and L-threo-sphinganines tested in human Glioblastoma multiforme (brain cancer) cell line, A-172.

[9] = 4-HPR 1.5 μM + L-threo-sphinganine 0.5 μM
[10] = 4-HPR 3 μM + L-threo-sphinganine 1 μM
[11] = 4-HPR 6 μM + L-threo-sphinganine 2 μM
[12] = 4-HPR 9 μM + L-threo-sphinganine 3 μM

CCCCCCCCCCCCCCCCC[C@H](O)[C@@H](N)CO [C20, (2S,3S)-2-amino-1,3-icosanediol]
CI (Combination Index) [1, 9]: 0.9 | Fa (fraction affected) [1, 9]: 0.408 | CI (Combination Index) [1, 10]: 0.8 | Fa (fraction affected) [1, 10]: 0.773 | CI (Combination Index) [1, 11]: 1.1 | Fa (fraction affected) [1, 11]: 0.896 | CI (Combination Index) [1, 12]: 0.2 | Fa (fraction affected) [1, 12]: 0.999 | CI (Combination Index) [2, 9]: 0.8 | Fa (fraction affected) [2, 9]: 0.287 | CI (Combination Index) [2, 10]: 0.6 | Fa (fraction affected) [2, 10]: 0.852 | CI (Combination Index) [2, 11]: 0.6 | Fa (fraction affected) [2, 11]: 0.971 | CI (Combination Index) [2, 12]: 0.4 | Fa (fraction affected) [2, 12]: 0.998 | CI (Combination Index) [3, 9]: 1.2 | Fa (fraction affected) [3, 9]: 0.259 | CI (Combination Index) [3, 10]: 1.3 | Fa (fraction affected) [3, 10]: 0.688 | CI (Combination Index) [3, 11]: 0.4 | Fa (fraction affected) [3, 11]: 0.999 | CI (Combination Index) [3, 12]: >0.1 | Fa (fraction affected) [3, 12]: 1.000 | CI [4, 9]: 1.9 | Fa [4, 9]: 0.136 | CI [4, 10]: 1.9 | Fa [4, 10]: 0.291 | CI [4, 11]: 1.2 | Fa [4, 11]: 0.653 | CI [4, 12]: 0.1 | Fa [4, 12]: 0.990 | CI (Combination Index) [5, 9]: 0.5 | Fa (fraction affected) [5, 9]: 0.055 | CI (Combination Index) [5, 10]: 0.6 | Fa (fraction affected) [5, 10]: 0.737 | CI (Combination Index) [5, 11]: 0.7 | Fa (fraction affected) [5, 11]: 0.998 | CI (Combination Index) [5, 12]: 0.3 | Fa (fraction affected) [5, 12]: 1.000 | CI (Combination Index) [6, 9]: 0.5 | Fa (fraction affected) [6, 9]: 0.259 | CI (Combination Index) [6, 10]: 0.6 | Fa (fraction affected) [6, 10]: 0.366 | CI (Combination Index) [6, 11]: 0.8 | Fa (fraction affected) [6, 11]: 0.453 | CI (Combination Index) [6, 12]: 0.2 | Fa (fraction affected) [6, 12]: 0.956 | CI (Combination Index) [7, 9]: 2.4 | Fa (fraction affected) [7, 9]: 0.397 | CI (Combination Index) [7, 10]: 0.2 | Fa (fraction affected) [7, 10]: 0.989 | CI (Combination Index) [7, 11]: >0.1 | Fa (fraction affected) [7, 11]: 1.000 | CI (Combination Index) [7, 12]: >0.1 | Fa (fraction affected) [7, 12]: 1.000 | CI (Combination Index) [8, 9]: 2.8 | Fa (fraction affected) [8, 9]: 0.039 | CI (Combination Index) [8, 10]: 1.0 | Fa (fraction affected) [8, 10]: 0.594 | CI (Combination Index) [8, 11]: 0.6 | Fa (fraction affected) [8, 11]: 0.983 | CI (Combination Index) [8, 12]: >0.1 | Fa (fraction affected) [8, 12]: 1.000

CCCCCCCCCCCCCCCCCC[C@H](O)[C@@H](N)CO [C21]
CI (Combination Index) [1, 9]: 1.5 | Fa (fraction affected) [1, 9]: 0.118 | CI (Combination Index) [1, 10]: 1.9 | Fa (fraction affected) [1, 10]: 0.299 | CI (Combination Index) [1, 11]: 1.5 | Fa (fraction affected) [1, 11]: 0.809 | CI (Combination Index) [1, 12]: 0.5 | Fa (fraction affected) [1, 12]: 0.995 | CI (Combination Index) [2, 9]: 1.2 | Fa (fraction affected) [2, 9]: 0.149 | CI (Combination Index) [2, 10]: 1.2 | Fa (fraction affected) [2, 10]: 0.630 | CI (Combination Index) [2, 11]: 1.8 | Fa (fraction affected) [2, 11]: 0.857 | CI (Combination Index) [2, 12]: 2.3 | Fa (fraction affected) [2, 12]: 0.918 | CI (Combination Index) [3, 9]: 1.4 | Fa (fraction affected) [3, 9]: 0.225 | CI (Combination Index) [3, 10]: 1.5 | Fa (fraction affected) [3, 10]: 0.658 | CI (Combination Index) [3, 11]: 0.6 | Fa (fraction affected) [3, 11]: 0.996 | CI (Combination Index) [3, 12]: >0.1 | Fa (fraction affected) [3, 12]: 1 | CI [4, 9]: 2.5 | Fa [4, 9]: 0.111 | CI [4, 10]: 2.9 | Fa [4, 10]: 0.239 | CI [4, 11]: 1.6 | Fa [4, 11]: 0.784 | CI [4, 12]: 0.4 | Fa [4, 12]: 0.994 | CI (Combination Index) [5, 9]: 1.4 | Fa (fraction affected) [5, 9]: 0.131 | CI (Combination Index) [5, 10]: 1.9 | Fa (fraction affected) [5, 10]: 0.470 | CI (Combination Index) [5, 11]: 2.1 | Fa (fraction affected) [5, 11]: 0.946 | CI (Combination Index) [5, 12]: 2.0 | Fa (fraction affected) [5, 12]: 0.996 | CI (Combination Index) [6, 9]: 0.1 | Fa (fraction affected) [6, 9]: 0.626 | CI (Combination Index) [6, 10]: 0.1 | Fa (fraction affected) [6, 10]: 0.870 | CI (Combination Index) [6, 11]: 0.1 | Fa (fraction affected) [6, 11]: 0.977 | CI (Combination Index) [6, 12]: 0.2 | Fa (fraction affected) [6, 12]: 0.975 | CI (Combination Index) [7, 9]: 1.2 | Fa (fraction affected) [7, 9]: 0.574 | CI (Combination Index) [7, 10]: 1.0 | Fa (fraction affected) [7, 10]: 0.805 | CI (Combination Index) [7, 11]: 1.8 | Fa (fraction affected) [7, 11]: 0.832 | CI (Combination Index) [7, 12]: 0.1 | Fa (fraction affected) [7, 12]: 0.999 | CI (Combination Index) [8, 9]: 8.8 | Fa (fraction affected) [8, 9]: 0.006 | CI (Combination Index) [8, 10]: 1.6 | Fa (fraction affected) [8, 10]: 0.537 | CI (Combination Index) [8, 11]: 0.8 | Fa (fraction affected) [8, 11]: 0.996 | CI (Combination Index) [8, 12]: >0.1 | Fa (fraction affected) [8, 12]: 1.000
